Experiments:
Tbr1+/− mice = details: cited from earlier work; for behavioral defects and autism-like behaviors: refs [49, 50, 51]
Shank2−/− mice = details: previous studies [35-38]; cited from earlier work
CTTNBP2 R533* mice = test: Reciprocal social interaction (RSI) test, R533* mutant mice; type: in vivo, mouse
Method: (§1) Mouse behaviors were recorded by videotaping from above. […] Aggressive behavior was not assessed. […] The zinc concentrations were normalized by protein amounts. […] The first trial was performed before zinc supplementation. […] Reciprocal social interaction trials were performed as described above. To analyze the effect of D-cycloserine (DCS, ab120121, Abcam) on social behaviors of Cttnbp2 mutant mice, adult mice (˜8 weeks old) were first habituated to handling by subjecting them to an open field with or without inanimate objects. Mice were then isolated until ˜10 weeks old for reciprocal social interaction trials. During isolation, mice were habituated to intraperitoneal injection, which effectively reduces their anxiety response to intraperitoneal injection during the experimental period. On day 1 of the experiment, saline control (0.9% of NaCl) was intraperitoneally injected into the test animal 30 min before a reciprocal social interaction trial, conducted as described above. On day 2 of the experiment, D-cycloserine solution (2 mg/kg in 0.9% of NaCl) was intraperitoneally injected into mice 30 min before a reciprocal social interaction trial.

Cttnbp2−/− mice = test: Reciprocal social interaction (RSI) test, Cttnbp2−/− mice; type: in vivo, mouse
Method: as §1

CTTNBP2 M120I mice = test: Reciprocal social interaction (RSI) test, M120I mutant mice; type: in vivo, mouse; details: for social interaction in RSI, single supplement: CTTNBP2 M120I mice, individually provided: zinc (20 ppm), BCAA (0.225%), serine (0.5%)
Method: Before RSI, mice were individually isolated for at least a week. For the experiment, an unfamiliar adult mouse was put into the home cage of the test mouse for 10 min. The lid of the cage was removed during the entire session. Mouse behaviors were recorded by videotaping from above. The total time a test mouse spent interacting with and gently sniffing the unfamiliar mouse was manually recorded. Aggressive behavior was not assessed.
A supplement or supplement mixture was prepared by mixing a zinc ion source, a serine component and/or BCAAs at various concentrations in drinking water for behavior analyses.
We tested three different ASD mouse models, i.e. Nf1+/−, Tbr1+/−, and Cttnbp2 M120I mice. Before taking supplement, mice were subjected to the first reciprocal social interaction test. After taking supplement for 7 days, mice were analyzed again using reciprocal social interaction to evaluate the effect of nutritional supplementation.

[1] = Cttnbp2−/− mice; 40 ppm zinc in drinking water for 7 days vs regular water
Method: (§2) The concentration of zinc in the mouse chow (5K54, LabDiet) provided in our animal facility is 84 ppm. To increase the zinc intake to ˜150 ppm, mice were provided with ZnSO4 (Z0251, Sigma-Aldrich) in drinking water at a concentration of 40 ppm, which is based on daily consumption of ˜5 ml water and 2.5 g chow by each mouse. To study the expression of synaptic proteins after zinc supplementation, adult mice (˜8 weeks old) were fed with zinc-supplemented water or normal drinking water as control for 7 days and then sacrificed for synaptosomal analysis as described above. To validate the zinc levels in brain, zinc quantification kit (ab102597, Abcam) was used according to manufacturer's instruction. The zinc concentrations were normalized by protein amounts. To study the effect of zinc supplementation on social behavior of Cttnbp2 deletion and mutant mice, three consecutive trials of reciprocal social interaction were performed at intervals of 7 days (FIG. 8C). The first trial was performed before zinc supplementation. After the first trial, mice were provided with zinc-supplemented water (40 ppm) for 7 days and then subjected to the second trial. After the second trial, zinc-supplemented water was replaced with normal drinking water for 7 days and mice then underwent the third trial. Reciprocal social interaction trials were performed as described above.

wild-type mice = details: 40 ppm zinc in drinking water for 7 days
Method: as §2

[2] = tested on: synaptic proteins and glutamate receptors in synaptosomal fractions of Cttnbp2−/− mouse brains; details: 40 ppm zinc in drinking water for 7 days vs regular water
Method: One hemisphere of the forebrains from adult mice (˜8-weeks-old) were isolated and homogenized using a tissue dounce homogenizer with a loose pestle in 1 ml sucrose buffer [50 mM Tris-Cl pH 7.4, 320 mM sucrose, 2 mM DTT, 2 μg/ml leupeptin, 2 μg/ml pepstatin-A, 2 μg/ml aproteinin, 2 mM PMSF, 2 μg/ml MG132]. An aliquot of 50 μl of total homogenate was kept. The remainder of the total homogenate was centrifuged twice at 800×g for 10 min at 4° C. The supernatant was centrifuged at 9200×g for 15 min to collect the pellet as a crude synaptosomal fraction. The protein concentrations of total homogenates and synaptosomal fractions were determined by Bradford assay (Bio-Rad Protein Assay Dye Reagent Concentrate, Cat #5000006). Synaptosomal protein samples were then analyzed with LC-MS-MS and immunoblotting.
To validate CTTNBP2 expression in knockout mice, adult mouse brain (˜8 weeks old) samples were homogenized in RIPA buffer. After 30 min, debris was removed by centrifugation (13000 rpm in a microcentrifuge for 20 min). The supernatants were collected and protein amounts were determined by Bio-Rad Protein Assay Dye Reagent Concentrate. Protein samples were denatured by 2× sample buffer and boiled for 10 min. Five μg of protein samples were separated by SDS-PAGE and then transferred to PVDF membrane. Membranes were blocked using blocking buffer [5% skim milk and 0.1% Tween-20 in PBS] for 30 min and hybridized with primary antibodies. In principle, primary antibody was added into blocking buffer and hybridized with the membrane overnight at 4° C. or for 3 hr at room temperature. Horseradish peroxidase-conjugated goat anti-mouse, rabbit, or guinea pig secondary antibodies were used to detect primary antibody and were visualized using a Western Lightening Plus ECL system (PerkinElmer).
as §2

[3] = zinc supplementation in drinking water, experimental period

## N[C@@H]1CONC1=O [D-cycloserine, (4R)-4-amino-1,2-oxazolidin-3-one, reference compound]
Tbr1+/− mice; previous studies [35-38]
  social behaviors: improves
Tbr1+/− mice
  behavioral defects and autism-like behaviors: ameliorate the behavioral defects and improve autism-like behaviors
Shank2−/− mice
  social behaviors: improves
CTTNBP2 R533* mice; R533* mutant mice, 2 mg/kg intraperitoneally 30 min before RSI, vs saline
  social interaction behaviors in RSI test: improved
Cttnbp2−/− mice; 2 mg/kg intraperitoneally 30 min before RSI, vs saline control
  social interaction behavior in RSI test: increased social interaction behavior
CTTNBP2 M120I mice; M120I mutant mice, 2 mg/kg intraperitoneally 30 min before RSI, vs saline
  social interaction behaviors in RSI test: improved

## Oc1c(I)cc(Cl)c2cccnc12 [clioquinol]
Tbr1+/− mice
  behavioral defects and autism-like behaviors: ameliorate the behavioral defects and improve autism-like behaviors

## N[C@@H](CO)C(=O)O [serine, L-Serine]
CTTNBP2 M120I mice
  social interaction in RSI, single supplement: did not improve

## O.O.O.O.O.O.O.O=S(=O)([O-])[O-].[Zn+2] [zinc, Zinc sulfate heptahydrate]
[1]
  concentration of zinc in brains: increase
wild-type mice
  social behaviors in RSI tests: did not noticeably influence
[2]
  GRIN1 expression level in synaptosomal fractions: increased
  GRIN2B expression level in synaptosomal fractions: increased
  MOB4 expression level in synaptosomal fractions: increased
  RAC3 expression level in synaptosomal fractions: increased
  SHANK2 expression level in synaptosomal fractions: increased
  SHANK3 expression level in synaptosomal fractions: increased
  STRN expression level in synaptosomal fractions: increased
  cortactin expression level in synaptosomal fractions: increased
  levels of GRIA1 in synaptosomal fractions: not noticeably altered
  levels of GRIA2 in synaptosomal fractions: not noticeably altered
  synaptic levels of DPYSL3: reduced
CTTNBP2 R533* mice; R533* mice, 7 days after discontinuing zinc supplementation, vs second RSI test
  social interaction, third RSI test: tended to be lowered, but it was not statistically different from those of the second RSI
CTTNBP2 R533* mice; R533* mice, after 40 ppm zinc in drinking water for 7 days, vs first RSI test
  time interacting with the unfamiliar mouse, second RSI test: spent significantly longer interacting with the unfamiliar mouse
[3]
  body weight: nor did it alter
  volumes of water drunk daily: nor did it alter
Cttnbp2−/− mice; 7 days after discontinuing zinc supplementation, vs second RSI test
  social interaction, third RSI test: reduced
Cttnbp2−/− mice; after 40 ppm zinc in drinking water for 7 days, vs first RSI test
  time interacting with the unfamiliar mouse, second RSI test: spent significantly longer interacting with the unfamiliar mouse
CTTNBP2 M120I mice
  social interaction in RSI, single supplement: did not improve

Source: patent publication US12059433B2, “Treatment for autistic spectrum disorder (ASD) and relevant symptoms” (ACADEMIA SINICA, priority 2019, dated 2024)
